According to PubChem BioAssay (NCI):
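In this assay, cells in 96-well plates receive the compound at five concentrations for 48 hours. Endpoints are linearly interpolated between the surrounding concentrations. TGI: concentration producing complete growth inhibition.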

What was measured:
Assay in all cases: NCI-60 cell line screen, 48 h
NCI-H23 lung = test system: NCI-H23 lung
OVCAR-5 ovarian = test system: OVCAR-5 ovarian
UACC-257 melanoma = test system: UACC-257 melanoma
SF-295 CNS = test system: SF-295 CNS
SN12C renal = test system: SN12C renal
HL-60(TB) leukemia = test system: HL-60(TB) leukemia
U251 CNS = test system: U251 CNS
OVCAR-3 ovarian = test system: OVCAR-3 ovarian
SF-268 CNS = test system: SF-268 CNS
HOP-18 NSCLC = test system: HOP-18 NSCLC
RPMI-8226 leukemia = test system: RPMI-8226 leukemia
NCI-H522 lung = test system: NCI-H522 lung
M14 melanoma = test system: M14 melanoma
HCT-15 colon = test system: HCT-15 colon
MALME-3M melanoma = test system: MALME-3M melanoma
DLD-1 colon = test system: DLD-1 colon
SW-620 colon = test system: SW-620 colon
A549 NSCLC = test system: A549 NSCLC
RXF 393 renal = test system: RXF 393 renal
SK-MEL-28 melanoma = test system: SK-MEL-28 melanoma
IGROV1 ovarian = test system: IGROV1 ovarian
HT29 colon = test system: HT29 colon
UO-31 renal = test system: UO-31 renal
SR leukemia = test system: SR leukemia
SNB-75 CNS = test system: SNB-75 CNS
M19-MEL melanoma = test system: M19-MEL melanoma
OVCAR-8 ovarian = test system: OVCAR-8 ovarian
KM20L2 colon = test system: KM20L2 colon
SF-539 CNS = test system: SF-539 CNS
KM12 colon = test system: KM12 colon
MOLT-4 leukemia = test system: MOLT-4 leukemia
SK-OV-3 ovarian = test system: SK-OV-3 ovarian
NCI-H226 lung = test system: NCI-H226 lung
HCT-116 colon = test system: HCT-116 colon
UACC-62 melanoma = test system: UACC-62 melanoma
LXFL 529 NSCLC = test system: LXFL 529 NSCLC
CCRF-CEM leukemia = test system: CCRF-CEM leukemia
XF 498 CNS = test system: XF 498 CNS
RXF-631 renal = test system: RXF-631 renal
SNB-19 CNS = test system: SNB-19 CNS
EKVX NSCLC = test system: EKVX NSCLC
SK-MEL-5 melanoma = test system: SK-MEL-5 melanoma
K-562 leukemia = test system: K-562 leukemia
786-0 renal = test system: 786-0 renal
COLO 205 colon = test system: COLO 205 colon
ACHN renal = test system: ACHN renal
LOX IMVI melanoma = test system: LOX IMVI melanoma
HCC-2998 colon = test system: HCC-2998 colon
CAKI-1 renal = test system: CAKI-1 renal
OVCAR-4 ovarian = test system: OVCAR-4 ovarian
TK-10 renal = test system: TK-10 renal
HOP-62 NSCLC = test system: HOP-62 NSCLC
DMS 114 small cell lung = test system: DMS 114 small cell lung
NCI-H460 lung = test system: NCI-H460 lung

Measured: TGI

CCCCCC(=O)C(C)C1=Nc2nnc(CCCCCCCc3nnc4n3C(=O)C(C(C)C(=O)CCCCC)=N4)n2C1=O (centres undefined)
> 100 µM: all assays above
